Measured values from patent EP4644396A1 (Visionpharma (Nantong) Co., Ltd, priority 2022, dated 2024).
Like-named read-outs stand apart in the source and are kept apart here.

How the values were obtained:
[1] = target: T1, human TLR8 (Homo sapiens, UniProt Q9NR97); test: HEK-Blue hTLR8 SEAP reporter gene inhibition assay; assay type: cell-based
T1 construct: expressed in transfected cells
T1 sequence (Q9NR97 27-1041): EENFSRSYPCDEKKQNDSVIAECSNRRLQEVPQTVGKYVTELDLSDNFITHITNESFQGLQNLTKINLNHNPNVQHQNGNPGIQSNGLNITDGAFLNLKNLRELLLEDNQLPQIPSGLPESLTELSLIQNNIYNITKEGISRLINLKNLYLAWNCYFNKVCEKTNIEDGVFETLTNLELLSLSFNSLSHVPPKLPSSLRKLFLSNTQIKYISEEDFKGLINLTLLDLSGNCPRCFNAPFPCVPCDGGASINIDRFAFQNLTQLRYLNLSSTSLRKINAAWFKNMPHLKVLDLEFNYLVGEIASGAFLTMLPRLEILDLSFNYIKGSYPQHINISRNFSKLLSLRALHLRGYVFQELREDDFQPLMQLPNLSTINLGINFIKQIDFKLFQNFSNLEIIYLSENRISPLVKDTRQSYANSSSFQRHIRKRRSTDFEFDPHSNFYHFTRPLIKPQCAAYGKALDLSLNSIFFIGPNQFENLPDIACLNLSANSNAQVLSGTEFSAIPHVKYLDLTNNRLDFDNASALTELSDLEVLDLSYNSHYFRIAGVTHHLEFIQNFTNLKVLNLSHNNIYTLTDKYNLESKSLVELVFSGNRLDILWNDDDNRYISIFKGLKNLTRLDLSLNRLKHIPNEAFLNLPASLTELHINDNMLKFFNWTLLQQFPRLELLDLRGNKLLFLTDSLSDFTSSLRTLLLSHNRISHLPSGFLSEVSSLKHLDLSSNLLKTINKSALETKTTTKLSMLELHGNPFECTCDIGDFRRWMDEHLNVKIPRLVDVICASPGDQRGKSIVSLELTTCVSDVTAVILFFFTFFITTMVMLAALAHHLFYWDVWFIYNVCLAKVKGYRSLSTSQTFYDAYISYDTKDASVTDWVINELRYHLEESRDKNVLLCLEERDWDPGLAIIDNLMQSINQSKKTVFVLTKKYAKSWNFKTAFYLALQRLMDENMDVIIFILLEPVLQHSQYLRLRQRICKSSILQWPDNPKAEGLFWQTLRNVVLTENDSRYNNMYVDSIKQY
How it was run: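 SEAP read-out by Quanti-Blue after 20 h stimulation gave IC50 values. Stable hTLR7 or hTLR8 HEK-Blue cells were pretreated 15 min with compound at 0.001–36 µM final, then stimulated with 10 µM Gardiquimod (TLR7) or 10 µM TLR8 ligand.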

[2] = target: T2, human TLR7 (Homo sapiens, UniProt Q9NYK1); test: HEK-Blue hTLR7 SEAP reporter gene inhibition assay; assay type: cell-based
T2 sequence (Q9NYK1 27-1049): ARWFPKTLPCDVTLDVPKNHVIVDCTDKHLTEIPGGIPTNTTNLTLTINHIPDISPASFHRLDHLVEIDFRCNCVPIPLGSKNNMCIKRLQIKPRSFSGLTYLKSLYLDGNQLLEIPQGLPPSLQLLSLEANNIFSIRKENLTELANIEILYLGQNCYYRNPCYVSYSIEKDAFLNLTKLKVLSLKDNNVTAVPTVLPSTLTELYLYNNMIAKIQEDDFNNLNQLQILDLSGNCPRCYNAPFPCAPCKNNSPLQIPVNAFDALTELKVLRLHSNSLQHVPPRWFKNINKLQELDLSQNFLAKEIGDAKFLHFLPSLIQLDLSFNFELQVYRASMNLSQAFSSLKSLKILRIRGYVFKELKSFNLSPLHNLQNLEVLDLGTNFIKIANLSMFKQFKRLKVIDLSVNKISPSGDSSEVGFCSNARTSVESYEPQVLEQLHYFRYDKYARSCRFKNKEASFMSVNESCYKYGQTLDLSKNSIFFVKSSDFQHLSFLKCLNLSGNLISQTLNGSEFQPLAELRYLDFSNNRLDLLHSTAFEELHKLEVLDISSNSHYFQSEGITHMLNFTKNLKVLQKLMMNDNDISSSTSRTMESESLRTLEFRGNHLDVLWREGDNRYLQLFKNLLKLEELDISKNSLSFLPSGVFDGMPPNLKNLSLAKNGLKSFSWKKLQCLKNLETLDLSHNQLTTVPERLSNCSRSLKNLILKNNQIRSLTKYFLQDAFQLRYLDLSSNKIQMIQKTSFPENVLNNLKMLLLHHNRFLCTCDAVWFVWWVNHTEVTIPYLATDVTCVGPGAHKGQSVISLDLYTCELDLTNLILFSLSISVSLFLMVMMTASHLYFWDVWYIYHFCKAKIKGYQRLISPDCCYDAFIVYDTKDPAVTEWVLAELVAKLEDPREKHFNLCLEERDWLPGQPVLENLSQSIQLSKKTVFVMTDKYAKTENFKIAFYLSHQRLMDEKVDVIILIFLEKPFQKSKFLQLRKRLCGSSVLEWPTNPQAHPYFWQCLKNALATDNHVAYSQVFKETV
Experimental: HEK-Blue cells with stable expression of human TLR7 or TLR8 were used in the evaluation of inhibitory activity of compounds in the present invention against TLR7 or TLR8, by using its ability to induce the SEAP reporting gene under the control of the fusion of IFN-β minimum promoters into five NF-κB and ap-1 binding sites, as follows: hTLR7 HEK-Blue cells (Invivogen, 80, 000 cells per well) or hTLR8 HEK-Blue cells (60, 000 cells per well) were added to a 96-well cell culture plate. A solution of the testing compounds were added to each well, with the final concentration of tested compounds in the medium ranged from 0.001 to 36 µM and the culture was incubated for 15 minutes. M5049 was used as positive controls in the testing.
Then a TLR7 ligand (Gardiquimod, purchased from MedChemExpress, with final concentration of ligand in cell culture medium kept at 10 µM) or a TLR8 ligand (purchased from MedChemExpress with final concentration in cell culture media at 10 µM) and the culture was incubated for 20 hours. According to the manufacturer's instructions, a HEK-Blue reagent Quanti-blue (Invivogen) was used to detect the SEAP levels in cell cultures. The half […] concentration or IC50 was calculated by using GraphPad Prism. […] Table 1: Activities of examples in this invention to hTLR7/8 in HEK-Blue Cells

[3] = hTLR8 HEK-Blue cells, TLR8 ligand 10 µM, 20 hours, SEAP by Quanti-blue, class symbols, read-out: HEK-Blue hTLR8 IC50
[4] = hTLR7 HEK-Blue cells, TLR7 ligand Gardiquimod 10 µM, 20 hours, SEAP by Quanti-blue, class symbols, read-out: HEK-Blue hTLR7 IC50

Row | IC50 [1, 3] | IC50 [2, 4] | Compound | IC50 ([1]; HEK-Blue hTLR8 IC50 (µM)) | IC50 ([2]; HEK-Blue hTLR7 IC50 (µM))
1 | < 0.1 µM | > 0.05 µM | C[C@@H]1CN(c2ccc(C#N)n3ncc(F)c23)Cc2c3c(nn21)CN(Cc1cn[nH]c1)CC3 [Example I-28, (R)-4-(8-((1H-pyrazol-4-yl)methyl)-4-methyl-3,4,7,8,9,10-hexahydropyrido[3',4':3,4]pyrazolo[1,5-a]pyrazin-2(1H)-yl)-3-fluoropyrazolo[1,5-a]pyridine-7-carbonitrile] |  | 
2 | < 0.1 µM | < 0.05 µM | CC1Cc2c(nn3c2CN(c2ccc(C#N)n4ncc(F)c24)C[C@H]3C)CN1 (stereo partly drawn) [Example I-30, 4-((4R)-4,9-dimethyl-3,4,7,8,9,10-hexahydropyrido[3',4':3,4]pyrazolo[1,5-a]pyrazin-2(1H)-yl)-3-fluoropyrazolo[1,5-a]pyridine-7-carbonitrile] |  | 
3 | < 0.1 µM | > 0.05 µM | C[C@@H]1CN(c2ccc(C#N)n3ncc(F)c23)Cc2c3c(nn21)C(CO)NCC3 (stereo partly drawn) [Example I-33, 3-Fluoro-4-((4R)-7-(hydroxymethyl)-4-methyl-3,4,7,8,9,10-hexahydropyrido[3',4':3,4]pyrazolo[1,5-a]pyrazin-2(1H)-yl)pyrazolo[1,5-a]pyridine-7-carbonitrile] |  | 
4 | < 0.1 µM | < 0.05 µM | C[C@@H]1CN(c2ccc(C#N)n3ncc(F)c23)Cc2c3c(nn21)CC(N1CCC(O)C1)CC3 (stereo partly drawn) [Example I-34, 3-Fluoro-4-((4R)-8-(3-hydroxypyrrolidin-1-yl)-4-methyl-3,4,7,8,9,10-hexahydropyrazino[1,2-b]indazol-2(1H)-yl)pyrazolo[1,5-a]pyridine-7-carbonitrile] |  | 
5 | < 0.1 µM | < 0.05 µM | C[C@@H]1NCCc2c1nn1c2CN(c2ccc(C#N)n3ncc(F)c23)C[C@H]1C [Example I-39, 4-((4R,7S)-4,7-dimethyl-3,4,7,8,9,10-hexahydropyrido[3',4':3,4]pyrazolo[1,5-a]pyrazin-2(1H)-yl)-3-fluoropyrazolo[1,5-a]pyridine-7-carbonitrile] |  | 
6 | < 0.1 µM | > 0.05 µM | C[C@@H]1CN(c2ccc(C#N)n3ncc(F)c23)Cc2c3c(nn21)CNCC3CO (stereo partly drawn) [Example I-40, 3-Fluoro-4-((4R)-10-(hydroxymethyl)-4-methyl-3,4,7,8,9,10-hexahydropyrido [3',4':3,4]pyrazolo[1,5-a]pyrazin-2(1H)-yl)pyrazolo[1,5-a]pyridine-7-carbonitrile] |  | 
7 |  |  | C[C@@H]1CN(c2ccc(C#N)n3ncc(F)c23)Cc2c3c(nn21)CN[C@H](CO)C3 [Example I-43, 3-fFuoro-4-((4R,9S)-9-(hydroxymethyl)-4-methyl-3,4,7,8,9,10-hexahydropyrido [3',4':3,4]pyrazolo[1,5-a]pyrazin-2(1H)-yl)pyrazolo[1,5-a]pyridine-7-carbonitrile] | < 0.1 µM | < 0.05 µM
8 | < 0.1 µM | < 0.05 µM | C[C@@H]1CN(c2ccc(C#N)n3ncc(F)c23)Cc2c3c(nn21)C(C)(C)NCC3 [Example I-45, (R)-3-Fluoro-4-(4,7,7-trimethyl-3,4,7,8,9,10-hexahydropyrido[3',4':3,4]pyrazolo[1,5-a]pyrazin-2(1H)-yl)pyrazolo[1,5-a]pyridine-7-carbonitrile] |  | 

Row | Compound | IC50 [1, 3] | IC50 [2, 4] | IC50 ([1]; HEK-Blue hTLR8 IC50 (µM)) | IC50 ([2]; HEK-Blue hTLR7 IC50 (µM))
9 | C[C@@H]1CN(c2ccc(C#N)n3ncc(F)c23)Cc2c3c(nn21)CN[C@@H](C)C3 [Example I-30a] | < 0.1 µM | < 0.05 µM |  | 
10 | C[C@@H]1Cc2c(nn3c2CN(c2ccc(C#N)n4ncc(F)c24)C[C@H]3C)CN1 [Example I-30b] | < 0.1 µM | < 0.05 µM |  | 
11 | C[C@@H]1CN(c2ccc(C#N)n3ncc(F)c23)Cc2c3c(nn21)C1CCC(C3)N1 (stereo partly drawn) [Example I-52, 3-Fluoro-4-((4R)-4-methyl-1,3,4,7,8,9,10,11-octahydro-2H-7,10-epiminocyclohepta [3,4]pyrazolo[1,5-a]pyrazin-2-yl)pyrazolo[1,5-a]pyridine-7-carbonitrile] | < 0.1 µM | < 0.05 µM |  | 
